The subject of one data set is CYP2C8 mRNA. As to conditions: human, hepatocytes, 48 h, 10 μM.
The next data set deals with CYP2C19 mRNA. As to conditions: human, hepatocytes, 48 h, 10 μM.
Data set [1] deals with CYP1A2, CYP2B6, and CYP3A4 mRNA. Also noted: method as in PMID 22752008. Particulars: three human hepatocytes, cited from earlier work.
Another data set has as its system CYP activities. Details: method as in PMID 22752008. Particulars: three human hepatocytes, cited from earlier work.
Data set [2] concerns HER2-positive metastatic breast cancer. Particulars: five randomized clinical trials, 3,720 patients; cited from earlier work.
For another data set, the system named is CYP2B6 mRNA. Nature of the data set: CYP2B6 mRNA level in human hepatocytes after 48 h treatment (RT-PCR). It is filed as cell-based. As to conditions: 48 h, 10 nM. An excerpt: (§1) 12.5 (Systat Software, Inc.; San Jose, CA, USA). […] 1.1 (Systat Software, Inc.).
The next data set has as its system CYP2B6. The data set is described as follows: CYP2B6-catalyzed bupropion hydroxylase activity in human hepatocytes after 48 h treatment. As to conditions: human, 48 h, 10 nM. The procedure:
(§2) Samples were incubated for 48 h at 37 °C in 5% CO2, and the medium was exchanged with 250 μL of fresh medium containing drugs or the vehicle every 24 h.
(§3) The effects of mertansine on CYP1A2, CYP2B6, and CYP3A4 activities were evaluated. […] Mixtures were vortexed for 2 min and then centrifuged at 13,000 g for 4 min at 4 °C. The supernatant (40 µL) was diluted with 60 µL of deionized water and then mixed for 2 min by vortexing. An aliquot (5 µL) was analyzed using LC-MS/MS [37], and CYP1A2, CYP2B6, and CYP3A4 enzyme activities were expressed as formation rates (pmol/million cells/min).
(§4) The percentage changes in enzymatic activities were calculated as (CYP activity with test compound treatment/CYP activity with vehicle control treatment) × 100. The IC50 (the concentration of the inhibitor needed for half-maximal inhibition) values were calculated using SigmaPlot ver. […] Ki (the inhibition constant) and the inhibition mode of UGT1A1, UGT1A3, and UGT1A4 activities were determined using Enzyme Kinetics ver. 1.1 (Systat Software, Inc.).

For a further data set, the system named is CYP1A2 mRNA. The data set is described as follows: CYP1A2 mRNA level in human hepatocytes after 48 h treatment (RT-PCR). The class given is cell-based. As to conditions: 48 h, 50 µM.
From the text: as §1

The test system of a further data set is UGT1A1 mRNA. The data set is described as follows: UGT1A1 mRNA level in human hepatocytes after 48 h treatment (RT-PCR). As to conditions: 48 h.
The subject of the next data set is CYP1A2. Nature of the data set: CYP1A2-catalyzed phenacetin O-deethylase activity in human hepatocytes after 48 h treatment. As to conditions: 48 h; for Enzyme Activities: CYP1A2-catalyzed phenacetin O-deethylase activity: Omeprazole 50 μM. The procedure: as §2, §3, §4
The test system of the next data set is UGT1A4 mRNA. The data set is described as follows: UGT1A4 mRNA level in human hepatocytes after 48 h treatment (RT-PCR). Particulars: 50 μM omeprazole, 48 h, range over three human hepatocytes.

Where two headings read alike, the source gives them in different places. Marks after values point to notes of the source that are not given here. Where a SMILES comes first, the peptide text is derived from it. [ ]: non-standard residue; d: D form. The star is where a group is joined. Dolaproine = CO[C@@H]([C@@H]1CCCN1)[C@@H](C)C(=O)O; Dil = CC[C@H](C)[C@H](NC)[C@@H](CC(=O)O)OC; X1 = C[C@@H](N*)[C@@H](O)c1ccccc1; NMeV = CN[C@H](C(=O)O)C(C)C

Turning to `CO[C@H]1/C=C/O[C@@]2(C)Oc3c(C)c(O)c4c(O)c(c(/C=N/N5CCN(C)CC5)c(O)c4c3C2=O)NC(=O)/C(C)=C\C=C\[C@H](C)[C@H](O)[C@@H](C)[C@@H](O)[C@@H](C)[C@H](OC(C)=O)[C@@H]1C` [Rifampin, rifampin], in the data set with CYP2C8 mRNA, the “Increase of CYP2C8 mRNA levels” value was 3.7–4.8 fold. In addition, the “Increase of CYP2C19 mRNA levels” value in the data set on CYP2C19 mRNA is 2.0–2.2 fold.
As to `CC[C@H](C)[C@@H]([C@@H](CC(=O)N1CCC[C@H]1[C@H](OC)[C@@H](C)C(=O)N[C@H](C)[C@@H](O)c1ccccc1)OC)N(C)C(=O)[C@@H](NC(=O)[C@@H](NC)C(C)C)C(C)C` [MMAE, monomethyl auristatin E] (H-[NMeV]V[Dil][Dolaproine]-X1), the entries for the “Suppression of CYP1A2, CYP2B6, and CYP3A4 mRNA expression” value in data set [1] (100 nM MMAE) and in data set [1] (1000 nM MMAE) were 61–90% and 95–97%, respectively. The “Decrease of CYP activities” value was 40–71% in the data set on CYP activities (100 nM MMAE) and 45–81% in the data set with CYP activities (1000 nM MMAE).
Turning to trastuzumab emtansine [T-DM1], in data set [2], the “Progression-free survival and overall survival compared to other anti-HER2 therapies” value is given as “significantly prolonged”.
As to `Clc1ccc(-c2nc3sccn3c2C=NOCc2ccc(Cl)c(Cl)c2)cc1` [CITCO, 6-(4-chlorophenyl)imidazo[2,1-b](1,3)thiazole-5-carbaldehyde-O-(3,4-dichlorobenzyl)oxime], the “Increase of CYP2B6 mRNA levels” value with CYP2B6 mRNA is listed as 5.6–8.7 fold. Further, the “Increase of CYP2B6-mediated bupropion hydroxylase activity” value with CYP2B6 is 3.8–15.7 fold.
Turning to `COc1ccc2[nH]c([S+]([O-])Cc3ncc(C)c(OC)c3C)nc2c1` (centres unmarked) [Omeprazole, omeprazole], the “Increase of CYP1A2 mRNA levels” value in the data set on CYP1A2 mRNA is recorded as 58.7–299.3 fold. The “Increase of UGT1A1 mRNA levels” value in the data set on UGT1A1 mRNA (50 μM omeprazole, range over three human hepatocytes) was 3.9–7.0 fold. The “UGT1A1 mRNA (Fold Change)” value in the data set on UGT1A1 mRNA (Omeprazole 50 μM, Lot 319) turned out to be 6.97 ± 0.94 Fold Change. In addition, the “Increase of CYP1A2-mediated phenacetin O-deethylase activity” value with CYP1A2 (50 µM omeprazole, vs vehicle, range over three human hepatocytes) is 11.7–61.8 fold. In addition, the “Enzyme Activities: CYP1A2-catalyzed phenacetin O-deethylase activity” value in the data set on CYP1A2 (Lot 319) is 18.5 ± 3.3 ^a pmol/10^6 Cells/min; in the data set with CYP1A2 (Lot 321), 89.45 ± 4.52 ^a pmol/10^6 Cells/min; in the data set with CYP1A2 (Lot 361), 81.0 ± 0.53 ^a pmol/10^6 Cells/min. Also, in the data set with UGT1A4 mRNA, the “Increase of UGT1A4 mRNA levels” value is recorded as 3.3–4.1 fold.

(Values after article PMC7150891, “Mertansine Inhibits mRNA Expression and Enzyme Activities of Cytochrome P450s and Uridine 5′-Diphospho-Glucuronosyltransferases in Human Hepatocytes and Liver Microsomes” (Pharmaceutics, 2020).)
